Here are results for five molecules from BindingDB's records for doi:10.7270/Q25D8QFV (Burnham Center For Chemical Genomics, 2012).

The assay deals with T1, Mitochondrial import inner membrane translocase subunit TIM23 (Saccharomyces cerevisiae (strain ATCC 204508 / S288c), UniProt P32897).
T1 sequence (P32897 whole entry): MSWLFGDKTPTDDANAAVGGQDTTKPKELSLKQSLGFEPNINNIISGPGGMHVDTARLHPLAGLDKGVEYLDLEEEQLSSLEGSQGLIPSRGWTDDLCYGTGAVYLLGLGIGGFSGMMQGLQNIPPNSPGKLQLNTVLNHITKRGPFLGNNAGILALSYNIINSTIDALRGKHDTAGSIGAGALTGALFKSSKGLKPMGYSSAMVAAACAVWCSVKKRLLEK
Nature of the assay: tim23-1 mutant yeast growth inhibitors, SAR follow-up, luminescence, S. cerevisiae (AID 602375).

Consider `Cc1ccc2nc(-n3c(O)c[nH]c3=S)sc2c1`, for which it took 50.3 µM to reach half-maximal inhibition (IC50).
`CCOc1ccc2nc(-n3c(O)c[nH]c3=S)sc2c1` [3-(6-Ethoxy-benzothiazol-2-yl)-2-thioxo-imidazolidin-4-one] had a 50% inhibitory concentration (IC50) of more than 99 µM.
On to `Cc1c2c(n(Cc3ccco3)c1C)N=CN1C=CS(=O)(=O)NC21` (stereo not given) [8-(furan-2-ylmethyl)-9,10-dimethyl-3,4-dihydropyrrolo[1,2]pyrimido[3,5-b][1,2,4]thiadiazine 2,2-dioxide], for which the IC50 is more than 99 µM.
The same measure for `C(=CN=Nc1nc2ccccc2[nH]1)Cc1ccccc1` [MLS000390936]: 11.2 µM; for `Cc1ccc(C2NN=C(c3ccc(Cl)cc3Cl)S2)cc1` (stereo not given) [MLS-0463404.0001]: 44.3 µM.
